Experimental data: US20030180292A1, “Treatment of B cell malignancies using anti-CD40L antibodies in combination with anti-CD20 antibodies and/or chemotherapeutics and radiotherapy” (IDEC PHARMACEUTICALS, priority 2002, published 2003)

Key:
DHL-4 cells = assay: Adriamycin (ADM) cytotoxicity of DHL-4 cells with sCD40L and IDEC-131, Alamar Blue assay; assay type: cell-based; conditions: 5 days
Protocol: Initially, the minimum concentration of ADM cytotoxic to DHL-4 cells was determined by exposing DHL-4 cells for 4 hours to different concentrations of ADM. The cell cytotoxicity of DHL-4 cells after 5 days in culture was measured by Alamar Blue, a dye-reduction assay by live cells (see Gazzano-Santoro et al., J. Immunol. Meth. 202: 163-171 (1997)). Briefly, 1×10^5 DHL-4 cells in growth medium (RMPI-1640 plus 10% Fetal Calf Serum) were incubated with varying concentrations of ADM (1×10^−6 M to 1×10^−8 M) in cell culture tubes at 37° C. for 4 hours. […] Following incubation, plates were cooled by incubating at room temperature for 10 minutes on a shaker, and the intracellular reduction of the dye was determined. Fluorescence was read using a 96-well fluorometer with excitation at 530 nm and emission at 590 nm. The results are expressed as relative fluorescence units (RFU). The percentage of cytotoxicity was calculated as follows: […]
DHL-4 cells (0.5×10^6 cells/ml) were incubated in the presence of 10 μg/ml of soluble CD40L (sCD40L, P. A. Brams, E. A. Padlan, K. Hariharan, K. Slater, J. Leonard, R. Noelle, and R. Newman, “A humanized anti-human CD154 monoclonal antibody blocks CD154-CD40 mediated human B cell activation,” (manuscript submitted)) for 1 hour at 37° C. […] After 5 days, the cytotoxicity was measured by Alamar Blue dye-uptake assay, as described.

B-CLL cells [1] = assay: Survival of B-CLL cells in culture, Trypan blue dye exclusion; assay type: cell-based, human; conditions: for % Viability (+) CD40L: sCD40L 5 μg/ml
Protocol: Peripheral blood mononuclear cells (PBMC) were isolated from a CLL patient's blood using a Ficoll-Hypaque gradient centrifulation. Viability was determined by Tryan blue dye exclusion and was >98%. […] CLL cells (PBMC) were cultured in CLL growth medium (e.g. RPMI-1640 medium supplemented with 5% FCS or 2% of autologous donor plasma, supplemented with 2 mM L-Glutamine and 100 U/ml Penicillin-Streptomycin). In addition. for some experiments, CD19^+ B-cells were purified using CD19^+ Dynabeads™ as per manufacture's instructions (Dynal, Cat. #111.03/111.04) and cultured as above. CLL or purified B-CLL cells cultured in growth medium mostly under went spontaneous apoptotic cell death. […] Table II indicates the cell viability of CD19^+ B-CLL cells grown in the presence or absence of sCD40L (5 μg/ml) at different time points and indicates the longer survival of CLL cells. B-CLL cells from Patient #1 cultured with sCD40L had ≧60% viability for greater than 2 weeks, whereas cells grown in the absence of sCD40L had less than 10% viability.

B-CLL cells [2] = assay: Growth and survival of B-CLL cells after 7 days in culture, Alamar Blue assay; assay type: cell-based, human; conditions: cultures with sCD40L
Protocol: Cells in one tube were mixed with sCD40L (5 μl/ml) in equal volume of growth medium, whereas the other tube was incubated with equal volume of growth medium as control. […] Seven days later, cell survival/death in culture was determined by Alamar Blue assay, as described above.

[3] = tested on: HLA-DR expression on CD19+ CLL cells; assay: HLA-DR expression on CD19+ CLL cells by flow cytometry; assay type: cell-based, human; conditions: for HLA-DR+ % Positive / HLA-DR+ MFI: CD19+ B-cells, 5 μg/ml CD40L
Protocol: To determine whether the CD40L-CD40 signal transduction pathway is intact, CLL cells from CLL patients were cultured (5×10^5 cells/ml) with and without 5 μg/ml of CD40L at 37° C. At 48 hours and 144 hours, the class II molecule, HLA-DR expression, was determined on […] cells by flow cytometry using standard procedures. Briefly, cultured lymphocytes were harvested at different time points and analyzed for surface expression of molecules using antibodies coupled to either fluorescein (FITC) or phycoerythrin (PE) for single or double staining using a FACScan (Becton-Dickinson) flow cytometer. To stain for flow cytometry, 1×10^6 cells in culture tubes were incubated with appropriate antibodies as follows: anti-CD45-FITC to gate lymphocyte population on a scatter plot; anti-CD19-PE (Pharmingen. Cat. #30655) or anti-CD20-FITC (Pharmingen; Cat. #33264) antibodies to determine the CD19^+ and/or […] B-cells; anti-CD3-FITC antibodies (Pharmingen; Cat. #30104) to gate-off the T cells; anti-CD19-RPE and anti-HLA-DR-FITC antibodies (Pharmingen; Cat. #32384) to determine the Pclass II expression on CD19^+ cells. Cells were washed once by centrifugation (at 200×g, for 6 min.) with 2 ml cold PBS and incubated with antibody for 30 min. on ice, after which the cells washed once, fixed in 0.5% paraformaldehyde and stored at 4° C. until analyzed. Flow cytometry data was acquired on FACsan and analyzed using WinList software (Verity Software House). The machine was set to autogating to allow examination of quadrants containing cells that were single stained with either RPE or FITC, unstained or doubly stained.

`COc1cccc2c1C(=O)c1c(O)c3c(c(O)c1C2=O)C[C@@](O)(C(=O)CO)C[C@@H]3O[C@H]1C[C@H](N)[C@H](O)[C@H](C)O1` [ADM, adriamycin] was tested, and the “cytotoxicity to DHL-4 cells (in words)” value (DHL-4 cells; exposed to ADM in the absence of sCD40L) was “increased cytotoxicity”.
With sCD40L: soluble CD40L the “survival of DHL-4 cells after ADM treatment (in words)” value (DHL-4 cells; sCD40L 10 μg/ml, ADM 2×10^−7 M-4×10^−8 M for 4 hours) was “prolonged survival”, the “% Viability (+) CD40L” value (B-CLL cells [1]; B-CLL Patient #1, 0 Hours) was “≧90%” and the “% Viability (+) CD40L” value (B-CLL cells [1]; B-CLL Patient #1, 48 Hours) was 90%. For the same compound, the “% Viability (+) CD40L” value (B-CLL cells [1]; B-CLL Patient #1, 96 Hours) was 77%, the “% Viability (+) CD40L” value (B-CLL cells [1]; B-CLL Patient #1, 144 Hours) was 72% and the “% Viability (+) CD40L” value (B-CLL cells [1]; B-CLL Patient #2, 0 Hours) was “≧90%”. The “% Viability (+) CD40L” value (B-CLL cells [1]; B-CLL Patient #2, 72 Hours) was 72%, the “% Viability (+) CD40L” value (B-CLL cells [1]; B-CLL Patient #2, 96 Hours) was 65% and the “% Viability (+) CD40L” value (B-CLL cells [1]; B-CLL Patient #2, 144 Hours) was 51%. The “viability of B-CLL cells cultured with sCD40L” value (B-CLL cells [1]; Patient #1, for greater than 2 weeks) was at least 60%, the “viability of CLL or purified B-CLL cells in culture (in words)” value (B-CLL cells [1]; cultured in the presence of sCD40L) was “extended their viability” and the “cell survival of B-CLL cells (in words)” value (B-CLL cells [2]) was “cell survival”. The “HLA-DR+ % Positive” value ([3]; 48 hrs) was 88%, the “HLA-DR+ MFI” value ([3]; 48 hrs) was 101 and the “HLA-DR+ % Positive” value ([3]; 144 hrs) was 95%. The “HLA-DR+ MFI” value ([3]; 144 hrs) was 2943 and the “HLA-DR expression on B-CLL cells (in words)” value ([3]; cultured in the presence of sCD40L vs not) was “higher level of HLA-DR expression”.
